Active and inactive are the calls of the source.
Columns and labels:
[1] = cytotoxicity toward NIH3T3 fibroblasts, dose response, counter-screen, cell-based, ATP luminescence, mouse fibroblasts (AID 2010); assay type: functional;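 further: cells exposed to compound for about 90 hours before reading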
[2] = inhibitors of intracellular T. cruzi replication, confirmation, NIH3T3 host cells, beta-gal luminescence (AID 2044); assay type: functional, cell-based;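 further: intracellular parasites grown in NIH/3T3 mouse fibroblasts as host cells; luminescent beta-galactosidase reporter signal from transgenic T. cruzi replicating inside host cells; inhibitors lower the luminescence signal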
[3] = molecular target: Beta-2 adrenergic receptor (Homo sapiens, UniProt P07550); test: beta2AR agonists driving receptor internalization, dose response, cell-based, FAP fluorogen, flow cytometry, cherry pick 1 (AID 588763); assay type: functional
Sequence of Beta-2 adrenergic receptor (P07550 whole entry): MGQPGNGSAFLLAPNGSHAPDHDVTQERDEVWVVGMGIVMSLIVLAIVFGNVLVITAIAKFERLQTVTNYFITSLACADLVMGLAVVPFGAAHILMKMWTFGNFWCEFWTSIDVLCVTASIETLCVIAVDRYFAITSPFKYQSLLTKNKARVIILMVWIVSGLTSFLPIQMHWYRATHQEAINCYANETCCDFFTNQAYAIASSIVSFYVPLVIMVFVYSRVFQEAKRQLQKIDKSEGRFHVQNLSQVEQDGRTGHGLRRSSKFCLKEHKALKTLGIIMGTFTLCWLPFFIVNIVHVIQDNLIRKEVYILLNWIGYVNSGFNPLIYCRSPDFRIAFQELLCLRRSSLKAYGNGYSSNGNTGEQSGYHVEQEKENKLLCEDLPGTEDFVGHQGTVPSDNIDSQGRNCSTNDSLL

Cytochrome P450 3A4 = Cytochrome P450 3A4 (Homo sapiens, UniProt P08684); settings: Potency;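 further: confirmatory qHTS run detecting inhibitors and substrates of CYP3A4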
Sequence of Cytochrome P450 3A4 (P08684 whole entry): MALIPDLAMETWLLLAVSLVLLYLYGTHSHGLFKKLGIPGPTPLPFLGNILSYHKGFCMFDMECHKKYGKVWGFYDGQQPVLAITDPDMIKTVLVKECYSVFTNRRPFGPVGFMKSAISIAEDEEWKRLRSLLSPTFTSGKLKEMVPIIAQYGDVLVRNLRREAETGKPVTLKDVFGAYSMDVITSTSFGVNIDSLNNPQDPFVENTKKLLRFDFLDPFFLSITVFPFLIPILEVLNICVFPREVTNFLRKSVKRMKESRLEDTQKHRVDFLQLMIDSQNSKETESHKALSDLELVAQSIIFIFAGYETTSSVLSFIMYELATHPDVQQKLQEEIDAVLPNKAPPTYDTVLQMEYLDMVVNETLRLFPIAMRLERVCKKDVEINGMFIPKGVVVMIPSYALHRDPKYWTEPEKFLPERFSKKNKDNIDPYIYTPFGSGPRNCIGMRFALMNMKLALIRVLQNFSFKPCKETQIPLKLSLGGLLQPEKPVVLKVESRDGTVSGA

[4] = molecular target: Voltage-gated inwardly rectifying potassium channel KCNH2 (Homo sapiens, UniProt Q12809); settings: Potency;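 further: confirmatory quantitative high-throughput screen measuring inhibition of hERG channel activity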
Sequence of Voltage-gated inwardly rectifying potassium channel KCNH2 (Q12809 whole entry): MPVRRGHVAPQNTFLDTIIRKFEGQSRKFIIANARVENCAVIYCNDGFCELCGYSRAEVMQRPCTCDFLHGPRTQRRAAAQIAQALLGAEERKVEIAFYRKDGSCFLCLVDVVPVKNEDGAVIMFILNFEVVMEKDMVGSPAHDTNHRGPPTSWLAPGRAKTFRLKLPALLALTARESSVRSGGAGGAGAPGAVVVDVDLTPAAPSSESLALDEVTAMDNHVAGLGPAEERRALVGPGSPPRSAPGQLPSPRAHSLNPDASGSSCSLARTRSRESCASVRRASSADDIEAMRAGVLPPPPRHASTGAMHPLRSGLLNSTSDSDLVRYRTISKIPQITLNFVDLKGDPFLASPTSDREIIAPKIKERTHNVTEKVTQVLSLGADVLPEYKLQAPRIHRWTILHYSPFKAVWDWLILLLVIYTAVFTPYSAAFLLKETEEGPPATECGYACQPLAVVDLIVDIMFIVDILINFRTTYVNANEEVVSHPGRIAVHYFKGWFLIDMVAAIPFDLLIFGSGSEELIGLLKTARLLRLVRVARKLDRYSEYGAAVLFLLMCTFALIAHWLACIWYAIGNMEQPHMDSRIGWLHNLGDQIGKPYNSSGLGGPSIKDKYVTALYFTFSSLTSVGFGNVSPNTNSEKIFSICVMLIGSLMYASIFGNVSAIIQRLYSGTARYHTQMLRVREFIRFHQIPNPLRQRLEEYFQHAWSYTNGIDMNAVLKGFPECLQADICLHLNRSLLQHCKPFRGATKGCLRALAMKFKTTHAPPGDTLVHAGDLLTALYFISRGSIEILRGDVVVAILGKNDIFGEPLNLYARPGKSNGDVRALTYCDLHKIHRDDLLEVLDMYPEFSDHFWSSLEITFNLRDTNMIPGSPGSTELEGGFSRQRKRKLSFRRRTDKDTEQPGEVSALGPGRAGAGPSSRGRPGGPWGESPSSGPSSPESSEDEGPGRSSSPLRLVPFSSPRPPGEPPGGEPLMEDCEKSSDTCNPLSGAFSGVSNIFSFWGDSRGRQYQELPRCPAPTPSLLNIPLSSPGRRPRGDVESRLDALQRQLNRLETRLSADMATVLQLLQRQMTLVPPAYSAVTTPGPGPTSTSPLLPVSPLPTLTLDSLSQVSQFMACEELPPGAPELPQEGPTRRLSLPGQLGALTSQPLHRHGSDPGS

[5] = molecular target: T1, Voltage-gated N-type calcium channel alpha-1B subunit/Amyloid beta A4 precursor protein-binding family A member 1 (Homo sapiens, UniProt Q00975+Q02410); assay type: protein assay
[6] = molecular target: T1, Voltage-gated N-type calcium channel alpha-1B subunit/Amyloid beta A4 precursor protein-binding family A member 1; assay type: protein assay; remark: listed apart in the source
[7] = A cytotoxicity screen of small molecule inhibitors of the PhoP region in Salmonella typhi identified in the primary screen. [Related pubchem assays: 1850, 1864, 1985 ]; assay type: functional
HEK293 [8] = test: cells; assay type: functional, cell-based; settings: Homo sapiens
HEK293 [9] = test: cells; assay type: functional, cell-based; settings: Homo sapiens; remark: listed apart in the source
HEK293 [10] = test: NOD2 signaling inhibitors in MDP-stimulated cells, cell-based, uHTS, luminescence (AID 2001); assay type: functional; settings: Homo sapiens
HEK293 [11] = test: NOD1 signaling inhibitors, primary screen, cell-based, luminescence, uHTS (AID 1578); assay type: functional; settings: Homo sapiens
[12] = IGROV1 ovarian cancer cell cytotoxicity, dose response, PAX8 inhibitor project, plate reader, dry powder samples (AID 743043); assay type: functional, cell-based; settings: IGROV-1
[13] = cytotoxicity in OVCAR8 ovarian cancer cells, dose response, PAX8 project, cell-based, plate reader, dry powder samples (AID 743197); assay type: functional; settings: OVCAR-8
Paired box protein Pax-8 = Paired box protein Pax-8 (Homo sapiens, UniProt Q06710); test: inhibitors of PAX8-driven TPO luciferase reporter, dose response, RMG-I cells, cherry-pick (AID 687027); assay type: functional, cell-based;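 further: luciferase reporter driven by Pax8 target thyroperoxidase promoter measured by SteadyGlo luminescence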
Sequence of Paired box protein Pax-8 (Q06710 whole entry): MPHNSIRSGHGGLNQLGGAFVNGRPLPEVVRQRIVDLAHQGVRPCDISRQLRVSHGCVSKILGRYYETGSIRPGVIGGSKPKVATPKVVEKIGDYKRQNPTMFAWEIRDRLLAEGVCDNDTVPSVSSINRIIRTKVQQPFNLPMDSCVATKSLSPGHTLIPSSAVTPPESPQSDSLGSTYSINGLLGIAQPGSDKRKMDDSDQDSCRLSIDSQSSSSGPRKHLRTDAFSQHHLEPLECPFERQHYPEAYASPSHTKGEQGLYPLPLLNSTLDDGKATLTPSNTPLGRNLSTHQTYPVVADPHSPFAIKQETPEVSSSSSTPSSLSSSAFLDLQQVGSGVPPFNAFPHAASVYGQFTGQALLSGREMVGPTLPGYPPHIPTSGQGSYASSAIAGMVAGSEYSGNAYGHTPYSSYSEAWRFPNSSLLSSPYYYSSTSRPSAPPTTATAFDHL

[14] = NIH:OVCAR-3 ovarian cancer cell cytotoxicity, dose response, PAX8 inhibitor project, plate reader, dry powder samples (AID 743044); assay type: functional, cell-based
[15] = molecular target: Dual specificity tyrosine-phosphorylation-regulated kinase 1A (Rattus norvegicus, UniProt Q63470); assay type: biochemical, Homo sapiens
[16] = C. albicans growth with fluconazole, confirmation, fluorescence, retest (AID 2467); assay type: functional, cell-based
[17] = NIH-3T3 fibroblast cytotoxicity, dose response, cytotoxicity control, cell-based, fluorescence, Alamar Blue, secondary assay (AID 2327); assay type: functional;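 further: NIH-3T3 mouse fibroblasts cultured with fluconazole at 8 µg/mL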

Question: With `CCOc1cc(CN2CCCC(CNC(=O)c3ccc(F)cc3)C2)ccc1OC` (stereo unspecified) as the molecule, how does the EC50 [1] read?
Answer: > 30 µM (not active)

Question: What about the EC50 (cells) of the same molecule?
Answer: 0.206 µM (active)

Question: What about the EC50 [2] of the same molecule?
Answer: < 0.1 µM (active)

Question: With `CCOc1ccc(NC(=O)CNC(=O)c2nn(-c3ccc(OC)c(OC)c3)c(=O)c3ccccc23)cc1` as the molecule, how does the EC50 [3] read?
Answer: 6.57 µM (active)

Question: Which AC50 (Cytochrome P450 3A4) does the source give for `Cc1cc([N+](=O)[O-])ccc1N` here?
Answer: 39.8 µM (inconclusive)

Question: What about the AC50 [4] of the same molecule?
Answer: 17.8 µM (inconclusive)

Question: With `Cc1ccc(-c2cc(C(=O)N3CC(C)CC(C)C3)c3ccccc3n2)o1` (stereo unspecified) as the molecule, how does the IC50 [5] read?
Answer: 11.3 µM (active)

Question: What about the IC50 [6] of the same molecule?
Answer: 5.42 µM (active)

Question: Which EC50 [7] does the source give for `Cc1ccccc1Cn1c(=O)n(CCCC(=O)NCc2ccco2)c(=O)c2ccccc21` here?
Answer: > 50 µM (active)

Question: With `CC(=O)Nc1ccc(C(=O)CCl)cc1` as the molecule, how does the AC50 [4] read?
Answer: 28.2 µM (inconclusive)

Question: Which EC50 [7] does the source give for `O=C(Nc1cccc(F)c1)NC1CCCCC1` here?
Answer: > 50 µM (active)

Question: What does the source list for `CC(C)c1ccc(S(=O)(=O)c2cc3cc(Br)ccc3oc2=O)cc1`?
Answer: IC50 (HEK293 [8]): 10.5 µM (active); IC50 (HEK293 [9]): 3.29 µM (active); IC50 (HEK293 [10]): 3.73 µM (active); EC50 (HEK293 [11]): > 20 µM (inactive)

Question: Which results are given for `CCCCCOC(=O)c1ccccc1C(=O)OCCCCC`?
Answer: AC50 (Cytochrome P450 3A4): 12.6 µM (inconclusive); AC50 [4]: 39.8 µM (inconclusive)

Question: Which EC50 [7] does the source give for `COc1ccccc1CNC(=O)Cn1c(=O)oc2cc(S(=O)(=O)N3CCCC3)ccc21` here?
Answer: > 50 µM (active)

Question: Which EC50 [1] does the source give for `COc1ccc(C2CC(=O)N(CCCN(C)CCc3ccc(OC)c(OC)c3)C2)cc1` (stereo unspecified) here?
Answer: > 60 µM (not active)

Question: What about the EC50 (cells) of the same molecule?
Answer: 0.02 µM (active)

Question: And the EC50 [2]?
Answer: < 0.1 µM (active)

Question: For `COC(=O)C1=C(c2cccc(OCc3ccccc3)c2)C[C@@H]2CC[C@H]1N2C(=O)NCc1cccc(F)c1`, which EC50 [3] is on record?
Answer: 4.8 µM (active)

Question: With `C[C@@H]1CN([C@H](C)CO)C(=O)c2cc(NS(=O)(=O)c3ccc(F)cc3)ccc2O[C@@H](C)CCCCO[C@H]1CN(C)Cc1ccc(C(F)(F)F)cc1` as the molecule, how does the AC50 [12] read?
Answer: 55.1 µM (active)

Question: And the AC50 [13]?
Answer: 33.9 µM (active)

Question: What about the AC50 (Paired box protein Pax-8) of the same molecule?
Answer: 5.54 µM (active)

Question: What about the AC50 [14] of the same molecule?
Answer: 7.81 µM (active)

Question: Which results are given for `CC(C)CC#Cc1ccc2c(c1)O[C@@H](CN(C)S(=O)(=O)c1ccc(F)cc1)[C@@H](C)CN([C@@H](C)CO)S2(=O)=O`?
Answer: AC50 [12]: 51.5 µM (active); AC50 [13]: > 70 µM (inactive); AC50 (Paired box protein Pax-8): 12.9 µM (active); AC50 [14]: 25.9 µM (active)

Question: With `C[C@H]1CCCCO[C@H](CN(C)C(=O)Nc2cccc3ccccc23)[C@@H](C)CN([C@@H](C)CO)C(=O)c2cc(NS(=O)(=O)c3ccc(F)cc3)ccc2O1` as the molecule, how does the AC50 [12] read?
Answer: 33.8 µM (active)

Question: And the AC50 [13]?
Answer: > 70 µM (inactive)

Question: And the AC50 (Paired box protein Pax-8)?
Answer: 5.88 µM (active)

Question: With `COc1ccc2cc(C(=O)N/N=C/c3cc(OC)c(OC)c(OC)c3)[nH]c2c1` as the molecule, how does the AC50 [15] read?
Answer: 3.83 µM (active)

Question: For `C/C(CC(C)(C)C1CCCCC1)=N\NC(N)=S`, which EC50 [16] is on record?
Answer: 2.9 µM (active)

Question: What about the EC50 [17] of the same molecule?
Answer: 2.86 µM (inconclusive)

Question: And the EC50 (cells)?
Answer: 0.133 µM (active)

Question: And the EC50 [2]?
Answer: < 0.1 µM (active)

Question: For `COC(=O)c1c(C)[nH]c(C)c1C(=O)c1ccccc1Cc1ccccc1`, which AC50 [4] is on record?
Answer: 35.5 µM (inconclusive)

Question: For `CC1(C)CC23C(=O)CCC(O)C2(C)CCC13` (stereo unspecified) [3-NOR-3-OXOPANASINSAN-6-OL], which AC50 (Cytochrome P450 3A4) is on record?
Answer: 15.8 µM (inconclusive)

Question: With `CC(C)=CCc1c2c(c(O)c3c(=O)c(O)c(-c4ccccc4)oc13)C=CC(C)(C)O2` [SERICETIN] as the molecule, how does the AC50 (Cytochrome P450 3A4) read?
Answer: 15.8 µM (inconclusive)
